From patent publication US20130078718A1, “CONVERSION OF VASCULAR ENDOTHELIAL CELLS INTO MULTIPOTENT STEM-LIKE CELLS” (PRESIDENT AND FELLOWS OF HARVARD COLLEGE, priority 2010, published 2013)

Key:
ALK2 with ALK5 = target: T1, ALK2 with ALK5 (Homo sapiens, UniProt Q04771); test: Interaction of ALK2 with ALK5: immunoprecipitation of ALK2, immunoblotting for ALK5; format: cell-based; conditions: 10 ng ml−1, 15 min
T1 construct: endogenous in cells; host or cells: HUVEC
T1 sequence (Q04771 21-509): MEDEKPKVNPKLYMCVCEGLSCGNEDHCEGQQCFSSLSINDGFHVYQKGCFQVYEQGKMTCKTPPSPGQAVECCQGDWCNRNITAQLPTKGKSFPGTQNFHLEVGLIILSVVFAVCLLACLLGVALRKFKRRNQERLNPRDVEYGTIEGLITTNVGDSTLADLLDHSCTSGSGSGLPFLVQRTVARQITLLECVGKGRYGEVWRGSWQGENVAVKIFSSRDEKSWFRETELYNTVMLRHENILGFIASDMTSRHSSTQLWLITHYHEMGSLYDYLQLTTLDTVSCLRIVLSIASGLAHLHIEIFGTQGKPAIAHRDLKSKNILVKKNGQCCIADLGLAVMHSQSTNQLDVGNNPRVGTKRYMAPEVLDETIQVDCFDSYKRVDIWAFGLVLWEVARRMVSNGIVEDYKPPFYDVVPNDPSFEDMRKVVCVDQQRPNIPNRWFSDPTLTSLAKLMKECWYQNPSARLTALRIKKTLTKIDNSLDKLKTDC
Protocol: Human umbilical vein endothelial cells (HUVEC) and human cutaneous microvascular endothelial cells (HCMEC) isolated as previously described (35). Cells were tested for purity and found to express no markers for lymphatic endothelial cells or stromal cells (pericytes, smooth muscle cells, etc.) (36). This was reconfirmed by flow cytometry analysis (data not shown). Clonal populations were isolated with PYREX 8×8 mm cloning cylinders (Corning) and shown to respond in a manner identical to that of the cultures used for our experiments (FIG. 25B-D). Cells were grown in culture using EGM-2 medium (Cambrex), containing 10% FBS and 1% Penicillin/Streptomycin, followed by human endothelial serum free medium (Gibco) 24 h prior to all experimental conditions. Bone marrow derived mesenchymal stem cells (ScienCell Research Laboratories) were grown in mesenchymal stem cell medium (ScienCell Research Laboratories). Bone marrow derived hematopoietic stem cells (Lonza) were grown in HPGM medium (Lonza). Human corneal fibroblasts, from a stock provided by Dr. Elizabeth Hay (Harvard Medical School), were grown in RPMI medium, containing 10% FBS and 1% Penicillin/Streptomycin. Primary human osteoblasts, chondrocytes, and adipocytes and their respective growth media were obtained from Cell Applications, Inc. […] Recombinant VEGF (R&D Systems) was added to cultures at a concentration of 25 ng ml^-1. Dorsomorphin (Sigma-Aldrich) was added to cultures at a concentration of 5 μM. All experiments for this study were performed at minimum in triplicate. Immunoassays were performed using the following antibodies at concentrations (and using protocols) recommended by the respective manufacturers: […] Stressgen), phospho-Smad2 (3101), Smad2 (3122), phospho-Smad5 (9516), Smad5 (9517; […] Santa Cruz Biotechnology), osterix (ab22552), adiponectin (ab22554), N-cadherin (ab76057), NG2 (ab83508), vWF (ab68545; Abcam); CD31 (IR610; Dako), […]; GenScript); α-SMA ([…]), β-actin (A1978; Sigma-Aldrich). […] Images were acquired using a Nikon 80i fluorescence microscope.

HUVECs and HCMECs = test: In vivo multipotency: polylactic acid scaffolds with pre-treated endothelial cells implanted into nude mice; parameters: species or system immunodeficient nude mice; conditions: for co-expression of Qtracker label with osteocalcin, SOX9 or adiponectin in implants (immunohistochemistry): cells pre-labeled with quantum dots, pre-treated, implanted 6 weeks; for bone, cartilage or fat products in implanted scaffolds (alizarin red, alcian blue, oil red O): cells pre-treated, differentiation medium injected locally every 72 h for 6 weeks
Protocol: Cells were grown in StemPro osteogenic, chondrogenic, or adipogenic culture medium (Invitrogen). Alkaline phosphatase staining was performed using the alkaline phosphatase kit and protocol (Sigma-Aldrich) on cultures grown in osteogenic medium for 7 d to detect osteoblasts. Alizarin Red (Sigma-Aldrich) staining was performed for 30 min on cultures grown in osteogenic medium for 21 d to detect matrix calcification. Alcian Blue (Sigma) staining was used to stain chondrocyte proteoglycans for 5 minutes in cultures grown in chondrogenic medium for 14 d. Oil Red O (Sigma-Aldrich) staining was performed for 15 min on cultures grown in adipogenic medium for 7 d. For in vivo analysis, endothelial cells were labeled with fluorescent quantum dots using the Qtracker 525 Cell Labeling Kit (Invitrogen). Cells were treated in culture to induce EndMT then absorbed into OPLA polylactic acid scaffolds (BD Biosciences). Scaffolds were surgically implanted subcutaneously into immunodeficient nude mice (Nu/Nu strain; Charles River Laboratories). Local injection of StemPro differentiation medium (described above) was performed in the area of the implants every 72 h for 6 weeks. Scaffolds were cryosectioned and stained with Alizarin Red, Alcian Blue, or Oil Red O as described above. All procedures were reviewed and approved by the Institutional Animal Care and Use Committee at Harvard Medical School.

Substance | ALK5 in ALK2 immunoprecipitates (ALK2 with ALK5) | co-expression of Qtracker label with osteocalcin, SOX9 or adiponectin in implants (immunohistochemistry) (HUVECs and HCMECs) | bone, cartilage or fat products in implanted scaffolds (alizarin red, alcian blue, oil red O) (HUVECs and HCMECs)
BMP4: Recombinant BMP4 protein (R&D Systems), ALK2 activating ligand, used at 10 ng/mL | presence of ALK5 | co-expression of the Qtracker with osteocalcin, SOX9, or adiponectin | formation of bone, cartilage, or fat products
TGF-β2: Recombinant TGF-β2 protein (R&D Systems), ALK2 activating ligand, used at 10 ng/mL | presence of ALK5 | co-expression of the Qtracker with osteocalcin, SOX9, or adiponectin | formation of bone, cartilage, or fat products
